Entries after “also recorded” stand apart in the source; their conditions may differ. Like-named read-outs stand apart in the source and are kept apart here.
Tests used:
[1] = Oral administration to mice (intestinal environment), toxicity observation; type: in vivo; conditions: 20 mM suspension, 0.5 ml orally once a day, five days
Protocol: To each of four mice, 0.5 ml of the suspension was orally administered once a day, and on five days after the start of administration, the mice were dissected and the feces and intestinal tract contents were collected, and the intestinal pH and sodium ion concentration were measured.

[2] = system: enterococci (Enterococcus hirae); assay: Growth experiment of enterococci (secondary screening), OD600 at pH 7.0 and pH 8.5; type: cell-based; design: Growth inhibition rate (%): concentration or dose not given beside the values; conditions: for Specificity: growth inhibition at pH 8.5 versus pH 7.0
Protocol: In the culture of enterococci (Enterococcus hirae), a culture medium in which the Na^+ concentration had been adjusted by adding a buffer solution using 2% tryptone and 1% yeast extract as the base was used. In a case of adding glucose, glucose prepared in a 50% solution was added so as to be 1% into the culture medium when the culture medium was used. The whole amount 200 μL was cultured using a 96-well plate, and OD600 was measured every hour by using a plate reader. By using culture media at pH 7.0 and pH 8.5, the effect of pH on the growth was observed. In culture of bacteria, the pH often fluctuates largely due to the decomposition of the sugars required for the growth, and it is extremely important to maintain a constant pH in this experiment, and therefore, the pH was maintained constant with the addition of a buffer suitable for each pH. Since the V-ATPase is expressed only under an alkaline condition, the growth inhibition observed with the addition of an inhibitor is largely dependent on the pH.
IC50 and the like of the above 24 kinds of compounds are described in the following table. […] Furthermore, with respect to the symbol “n.a.”, a compound having a growth inhibition rate of 60% or more at pH 7.0 is determined that there was the growth inhibition. In addition, the growth inhibition rate of a compound having no clear inhibition is also recorded for reference.

[3] = system: Enterococcus faecium (vancomycin-resistant enterococci, VRE); assay: Growth inhibition of pathogenic bacteria, VRE E. faecium; type: cell-based; conditions: pH 7.0, pH 7.5, pH 8.0; OD600
Protocol: (§1) As the pathogenic bacteria, Enterococcus faecalis and Enterococcus faecium that are vancomycin-resistant enterococci (VRE), and Clostridium difficile that leads to deterioration of intestinal environment and is resistant to multiple drugs were prepared. The VRE were cultured by using culture media at pH 7.0, pH 7.5, and pH 8.0, the C. difficile was cultured by using culture media at pH 6.5, pH 7.0, and pH 7.5, and the difference in the number of bacteria was confirmed by measuring OD600.
(§2) The data of pH 7.0, pH 7.5, and pH 8.0 are shown in order from the top of FIG. 6. […] The data of pH 6.5, pH 7.0, and pH 7.5 are shown in order from the top of FIG. 7.

[4] = system: Enterococcus faecalis (vancomycin-resistant enterococci, VRE); assay: Growth inhibition of pathogenic bacteria, VRE E. faecalis; type: cell-based; conditions: pH 7.0, pH 7.5, pH 8.0; OD600
Protocol: as §1, §2

[5] = target: T1, V-ATPase (purified from enterococci or recombinant E. coli) (Enterococcus hirae, UniProt P43439+P43457); assay: ATPase activity measurement (molybdenum blue method, primary screening); type: biochemical
T1 construct: made in house; host or cells: Enterococcus hirae (native) or recombinant E. coli
Protocol: The ATPase activity can be measured by a molybdenum blue method for measuring absorbance of the inorganic phosphoric acid generated by hydrolysis of ATP. As the reaction conditions, conditions for measuring the ATPase activity can be adopted. As the buffer solution used in the reaction, Tris-HCl buffer can be used. The reaction time is usually 10 to 60 minutes, but can be appropriately adjusted depending on the air temperature or the like. The reaction of V-ATPase is terminated with the addition of a surfactant such as sodium dodecyl sulfate (SDS), and into which a color-developing liquid (such as ferrous sulfate) is added to give a color, and then the concentration of the inorganic phosphoric acid can be calculated by the measurement of the absorbance at a wavelength of 650 nm.
From the concentration of inorganic phosphoric acid calculated above, the inhibition rate of the V-ATPase reaction can be calculated. That is, a graph is created in which the inhibition rate is plotted on the vertical axis and the concentration of compound is plotted on the horizontal axis, and the concentration (IC50) at which the inhibition rate becomes 50% is determined. As the concentration of compound at which IC50 is obtained becomes lower, a higher V-ATPase inhibitory effect is exerted with a small amount, and accordingly, the compound can be taken as a candidate compound for the inhibitor for V-ATPase activity.
The V-ATPase was prepared by the method disclosed in the following papers. • Paper 1: Takeshi Murata, et. al, “Purification and Reconstitution of Na^+-translocating Vacuolar ATPase from Enterococcus hirae”, J. Biol. Chem. 272, 24885-24890 (1997) • Paper 2: Takeshi Murata, et. al, “Torque Generation of Enterococcus hirae V-ATPase”, J. Biol. Chem. 289, 31212-31223 (2014)
ATPase activity measurement was conducted by a molybdenum blue method that quantifies the inorganic phosphoric acid generated by hydrolysis of ATP with the use of absorbance measurement. The measurement was conducted in a 96-well plate, and 0.05% DDM (n-dodecyl-β-D-maltoside), 10 μg/mL of V-ATPase (purified from enterococci or recombinant E. coli), and 20 μM of a compound were added into a buffer (100 mM Tris-HCl at pH 8.5, 100 mM NaCl, 5 mM MgSO4, 10% glycerol). Into the mixture obtained above, ATP was added so as to be 5 mM, the whole amount was set to 100 μL, the reaction was started while stirring the mixture with a stirrer, and the reaction time was set to 30 minutes. Since the ATPase activity changes largely depending on the reaction temperature, the reaction time was adjusted within the range of 10 to 60 minutes corresponding to the air temperature on the day of the experiment. With the addition of 50 μL of 20% SDS, the V-ATPase was denatured and the reaction was terminated, and into the resultant mixture, 75 μL of color-developing liquid (5% ferrous sulfate, 1.6% ammonium molybdate, and 1 M sulfuric acid) was added to give a color. Immediately, the absorbance at a wavelength of 650 nm was measured by using a plate reader. Four kinds of KH2PO4 aqueous solutions of 0.2 mM, 0.5 mM, 1.0 mM, and 1.5 mM were reacted with MQ (ultrapure water) in the same experiment system, and then the activity of V-ATPase was measured by determining the concentration of generated inorganic phosphoric acid with the use of a created calibration curve. In this regard, a compound that had inhibited 50% or more of the activity of V-ATPase was diluted stepwisely so as to have a concentration of 10 μM, 5 μM, 2 μM, 1 μM, 500 nM, 200 nM, 100 nM, and 50 nM, and the measurement similar to the above was conducted.
From the results of the above measurement of ATPase activity, the inhibition rate was calculated comparing the decrease in the activity by assuming the activity under the condition of no compound addition as 100. A graph was created in which the inhibition rate was plotted on the vertical axis and the concentration of compound was plotted on the horizontal axis (FIG. 2). […]

[6] = system: Clostridium difficile; assay: Growth inhibition of pathogenic bacteria, C. difficile; type: cell-based; conditions: pH 6.5, pH 7.0, pH 7.5; OD600
Protocol: as §1, §2

[7] = system: E. faecium of VRE; assay: Test in VRE-infected mice, number of live VRE in the intestine; type: in vivo; conditions: antibiotic-treated mice infected with E. faecium VRE
Protocol: Mice treated with antibiotics were infected with E. faecium of VRE, and V-161 was administered to the mice.

[8] = Table 2, E. hirae growth, pH not stated (media pH 7.0 and pH 8.5)
[9] = IC50 (nM), Table 2, inhibition of V-ATPase ATPase activity, pH 8.5 buffer
[10] = high affinity for V-ATPase (IC50), unit inferred
[11] = Table 2, inhibition of V-ATPase ATPase activity, pH 8.5 buffer, read-out: IC50
[12] = Table 4, (1,2,4-oxadiazol-3-yl)phenyl derivatives
[13] = IC50 (nM), Table 4, (1,2,4-oxadiazol-3-yl)phenyl derivatives

Row | Compound | Growth inhibition rate (%) [2, 8] [%] | Specificity ([2]; Table 2) | IC50 [5, 9] [nM] | Growth inhibition rate (%) [2, 12] [%] | IC50 [5, 13] [nM] | also measured
1 | Cc1ccc2nc(-c3ccc(N(C)C)cc3)[nH]c2c1 [Compound V-161, N,N-dimethyl-4-(6-methyl-1H-benzo[d]imidazol-2-yl)aniline] | 88.7 | + (there was no growth inhibition at pH 7.0 but was the growth inhibition at pH 8.5) | 85 | – | – | toxicity in mice [1]: toxicity was not observed; non-specific inhibition / non-specific bond [2]: no non-specific inhibition; Growth inhibition rate (%) ([2]; Table 3, 2-phenyl benzimidazole derivatives): 88.7%; Specificity ([2]; Table 3): + (there was no growth inhibition at pH 7.0 but was the growth inhibition at pH 8.5); growth of E. faecium (VRE) (FIG. 6) [3]: inhibited in a pH-dependent manner; also recorded: more strongly affected by the V-161 than E. faecalis; growth of E. faecalis (VRE) (FIG. 6) [4]: inhibited in a pH-dependent manner; IC50 ([5]; IC50 (nM), Table 3, 2-phenyl benzimidazole derivatives): 85 nM; IC50 [5, 10]: ≤ 400 nM; growth of C. difficile (FIG. 7) [6]: inhibited even under a neutral or acidic condition; decrease of VRE in the cecum, large intestine, and feces versus controls (FIG. 10) ([7]; cecum, large intestine, feces): around 50%; decrease of VRE in the small intestine versus controls (FIG. 10) ([7]; small intestine): 97%
2 | O=C(c1cnc(Nc2nc3ccccc3o2)nc1)c1cc(Cl)cc(Cl)c1O [Compound V-207] | 12.0 | − (there was no growth inhibition in any case) | – | – | – | IC50 [5, 11]: 5000 nM
3 | Cc1ccccc1OCc1nc(-c2ccc(NC(=O)c3cccs3)cc2)no1 [Compound V-234, N-(4-(5-((o-tolyloxy)methyl)-1,2,4-oxadiazol-3-yl)phenyl)thiophene-2-carboxamide] | 75.5 | + (there was no growth inhibition at pH 7.0 but was the growth inhibition at pH 8.5) | 40 | 75.5 | 40 | non-specific inhibition / non-specific bond [2]: no non-specific inhibition; IC50 [5, 10]: ≤ 400 nM
4 | CCCc1ccc(OCc2nc(-c3ccc(NC(=O)c4cccs4)cc3)no2)cc1 [Compound V-234-01] | – | – | – | 76.9 | 50 | –
5 | Cc1cccc(OCc2nc(-c3ccc(NC(=O)c4cccs4)cc3)no2)c1C [Compound V-234-02] | – | – | – | 74.8 | 40 | –
6 | Cc1ccc(C(=O)Nc2ccc(-c3noc(COc4cccc(C)c4C)n3)cc2)s1 [Compound V-234-03] | – | – | – | 72.0 | 6 | –
7 | O=C1N=C(O)N=C(O)C1=Cc1ccc(-c2ccc([N+](=O)[O-])cc2)o1 [Compound V-278] | 44.4 | + (there was no growth inhibition at pH 7.0 but was the growth inhibition at pH 8.5) | 250 | – | – | –
8 | CCCOc1ccc(/C=N/Nc2nc3ccccc3[nH]2)c(OCCC)c1 [Compound V-289] | 55.0 | + (there was no growth inhibition at pH 7.0 but was the growth inhibition at pH 8.5) | – | – | – | IC50 [5, 11]: 600 nM

Source: patent publication US12599588B2, “Inhibitor for V-ATPase activity, antibacterial agent, medicine, antibacterial method and screening method” (Japan Science and Technology Agency, priority 2019, dated 2026)
